Test results published in US11696581B2, “Monoterpenoid/phenylpropanoid-containing compounds and methods of their making and use as seed treatments” (KITTRICH CORPORATION, priority 2016, dated 2023).

Legend:
Type in all cases: in vivo
[1] = test system: Western corn rootworm larvae; test: Western corn rootworm survival assay (treated corn seeds); conditions: corn seeds coated 1% weight/weight; 6 neonatal larvae per cup; 7 days at 28° C.; α=0.05; control survival 67.8±3.7%
Protocol: Solo® condiment cups with lids. Germination of seeds was performed by carefully applying 500 μL of de-ionized water in order to fully surround each seed with water at the bottom of the cup. Parafilm® wax was placed over the top of the cup to maintain moisture and encourage germination of the seeds. Cups containing moistened seeds were allowed to germinate in the dark for 3 days before the start of the assay. Six live neonatal Western corn rootworm larvae were carefully applied to the roots of germinated corn seeds for each cup. After applying the larvae to the roots, 30 g of dried soil, sieved with a 600-μm Fisher Brand sieve and moistened with 4.5 mL of water, was applied evenly throughout the cup. Organza was placed over the top of the cup and fastened in place with a cup lid. Cups were incubated at 28° C. in 40-50% humidity for 7 days. Surviving corn rootworm were enumerated and the average percentage survival was reported. A minimum of 10 replicates were performed for each treatment.

corn seeds = test: Germination assays of coated corn seeds; conditions: 3 days dark then one week in soil, root mats and radicals emerged or not
Protocol: Germination of seeds was performed by carefully applying 500 μL of de-ionized water in order to fully surround each seed with water at the bottom of the cup. Parafilm wax was placed over the top of the cup to maintain moisture and encourage germination of the seeds. Cups containing moistened seeds were allowed to germinate in the dark for 3 days before 30 g of soil was introduced into the cup, with 4.5 mL of water added to the soil to moisten it. Seeds were allowed to grow for one week before removing the soil and assessing total germination. Germination was quantified as whether or not root mats and radicals emerged from the moistened seed casing. The total number of seeds in each cup (out of three seeds) that germinated were quantified. Over 4 replicates of this experiment were performed for each monoterpenoid derivative treatment screened.

[2] = test system: Western corn rootworm larvae; test: Western corn rootworm repellency assay (treated vs untreated corn sides); conditions: one week; for larval mortality (missing larvae declared dead) in repellency arena: one side treated seeds, control 20% declared dead; for repellency: larvae isolated from untreated end vs treated end: choice between treated and untreated corn, 30 larvae, control 52% treated side / 48% untreated side
Description: Three treated seeds were germinated on one side of a plastic Genpack deli container (32 oz.) 5 days prior to infesting the container with western corn rootworm larvae. On the other side, three untreated seeds were germinated at the same time diagonally across from the treated seeds. Containers were infested by placing 30 rootworm into the middle of the container, on the top of the soil. Rootworm were allowed to choose which side to feed on primarily. Containers infested with western corn rootworm were incubated at 28° C. and 40±10% relative humidity for one week. After one week, containers were removed and soil was mechanically sifted through to quantify the number of living larvae. The total number of larvae present on the treated side vs. the untreated side were averaged from a minimum of three replicates. If repellency was observed (i.e. more rootworm found on the untreated side than the treated side), the experiment was repeated to confirm repellency in subsequent experiments. The number of rootworm missing were also enumerated. Data was averaged from a minimum of three replicates and over 90 larvae used in the total repellency assessment for each compound.

Compound: O=C(O)CCC(=O)OC/C=C/c1ccccc1 [cinnamyl hydrogen succinate]
- larval survival compared to the control [1]: significantly lower larval survival than the control
- inhibition of germination of corn seedlings (corn seeds): most significant inhibitors of germination of corn seedlings

Compound: CCCCCCCCCCCCCC(=O)OCC=Cc1ccccc1 [cinnamyl myristate]
- larval survival compared to the control [1]: significantly lower larval survival than the control
- larval mortality (missing larvae declared dead) in repellency arena [2]: higher larval mortality that was statistically significant compared to the control

Compound: CC(C)=CCCC(C)CCOC(=O)CC(C)CCC=C(C)C (stereo not shown) [citronellyl citronellate]
- larval survival compared to the control [1]: significantly lower larval survival than the control

Compound: CC(C)=CCCC(C)CC(=O)OCCOC(=O)CC(C)CCC=C(C)C (stereo not shown) [ethylene dicitronellate, Ethylene dicitronellate]
- larval survival compared to the control [1]: significantly lower larval survival than the control
- larval mortality (missing larvae declared dead) in repellency arena [2]: higher larval mortality that was statistically significant compared to the control

Compound: C=CCc1ccc(OC(=O)CC(C)CCC=C(C)C)c(OC)c1 (stereo not shown) [eugenyl citronellate]
- inhibition of germination of corn seedlings (corn seeds): most significant inhibitors of germination of corn seedlings

Compound: O=C(/C=C/c1ccccc1)OC1C(OC(=O)/C=C/c2ccccc2)C(OC(=O)/C=C/c2ccccc2)C(OC(=O)/C=C/c2ccccc2)C(OC(=O)/C=C/c2ccccc2)C1OC(=O)/C=C/c1ccccc1 (stereo not shown) [hexacinnamoyl inositol, hexacinnamoylinositol]
- repellency: larvae isolated from untreated end vs treated end [2]: higher number of larvae to be isolated from the untreated end compared to the treated end

Compound: CC(C)=CCCC(C)CC(=O)OC1C(OC(=O)CC(C)CCC=C(C)C)C(OC(=O)CC(C)CCC=C(C)C)C(OC(=O)CC(C)CCC=C(C)C)C(OC(=O)CC(C)CCC=C(C)C)C1OC(=O)CC(C)CCC=C(C)C (stereo not shown) [inositol hexacitronellate, hexacitronelloylinositol]
- larval survival compared to the control [1]: significantly lower larval survival than the control
- larvae associated with the treated corn side ([2]; average, choice arena, control approximately 52%): 22%
- repellency: larvae isolated from untreated end vs treated end [2]: higher number of larvae to be isolated from the untreated end compared to the treated end
- inhibition of germination of corn seedlings (corn seeds): most significant inhibitors of germination of corn seedlings

Compound: Cc1ccc(C(C)C)c(OC(=O)/C=C/c2ccccc2)c1 [thymyl cinnamate]
- larval survival compared to the control [1]: significantly lower larval survival than the control
- repellency: larvae isolated from untreated end vs treated end [2]: higher number of larvae to be isolated from the untreated end compared to the treated end

Compound: Cc1ccc(C(C)C)c(OC(=O)CCC(=O)O)c1 [thymyl hydrogen succinate]
- larval survival compared to the control [1]: significantly lower larval survival than the control

Compound: eugenyl succinate
- larval survival compared to the control [1]: significantly lower larval survival than the control
- repellency: larvae isolated from untreated end vs treated end [2]: higher number of larvae to be isolated from the untreated end compared to the treated end
- larval mortality (missing larvae declared dead) in repellency arena [2]: higher larval mortality that was statistically significant compared to the control
